Reference: US11229623B2 (GlaxoSmithKline Intellectual Property (No.2) Limited, priority 2016, dated 2022)
pIC50: −log10 of the molar value.

What follows are molecules tested against T1, human TRPV4 (Homo sapiens, UniProt Q9HBA0) (assay: FLIPR assay for hTRPV4 expressed in BHK cells: inhibition of Agonist Compound-induced calcium signal). Conditions: hTRPV4 in BHK/AC9 cells, FLIPR calcium signal, agonist at EC80; reported as range class; read-out: IC50.
T1 construct: expressed in transfected cells; host or cells: BHK/AC9 cells transduced with BacMam virus
Format: cell-based
Outline: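 BHK/AC9 cells transduced with BacMam human TRPV4 (MOI 78), plated 15,000 per well and cultured 24 h at 37° C. Loaded with 2 μM Fluo-4 AM plus 500 μM Brilliant Black in HBSS for 1-1.5 h at room temperature in the dark; intracellular calcium signal read by FLIPR fluorescence.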

T1 sequence (Q9HBA0 whole entry): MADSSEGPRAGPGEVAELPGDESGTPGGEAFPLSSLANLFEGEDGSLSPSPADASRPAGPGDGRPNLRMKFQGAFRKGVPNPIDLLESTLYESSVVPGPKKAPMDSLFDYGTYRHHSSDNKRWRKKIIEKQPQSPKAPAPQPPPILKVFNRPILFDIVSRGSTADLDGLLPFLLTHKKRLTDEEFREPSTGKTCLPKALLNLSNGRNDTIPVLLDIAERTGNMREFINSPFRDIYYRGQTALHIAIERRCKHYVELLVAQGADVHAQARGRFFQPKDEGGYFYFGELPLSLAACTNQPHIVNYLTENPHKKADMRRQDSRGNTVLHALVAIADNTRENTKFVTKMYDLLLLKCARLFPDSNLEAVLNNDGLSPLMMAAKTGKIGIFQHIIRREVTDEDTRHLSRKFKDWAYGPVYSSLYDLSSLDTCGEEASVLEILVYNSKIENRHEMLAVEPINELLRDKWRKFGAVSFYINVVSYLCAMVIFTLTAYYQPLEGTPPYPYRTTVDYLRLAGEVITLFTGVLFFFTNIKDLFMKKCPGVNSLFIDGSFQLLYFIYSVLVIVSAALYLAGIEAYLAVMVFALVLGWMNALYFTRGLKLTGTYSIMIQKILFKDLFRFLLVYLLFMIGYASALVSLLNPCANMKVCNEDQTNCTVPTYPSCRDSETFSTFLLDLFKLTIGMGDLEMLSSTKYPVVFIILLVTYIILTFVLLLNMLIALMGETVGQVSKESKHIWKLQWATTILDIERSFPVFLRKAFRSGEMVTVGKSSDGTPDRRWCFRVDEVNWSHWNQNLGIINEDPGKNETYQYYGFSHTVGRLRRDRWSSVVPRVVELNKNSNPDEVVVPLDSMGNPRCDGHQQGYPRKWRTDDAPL

Compared with `N#Cc1ccc(O[C@H]2CN(S(=O)(=O)c3cccnc3OC(F)F)C[C@@]2(O)CO)cc1F` [Example 122, 4-(((3S,4R)-1-((2-(difluoromethoxy)pyridin-3-yl)sulfonyl)-4-hydroxy-4-(hydroxymethyl)pyrrolidin-3-yl)oxy)-2-fluorobenzonitrile], `N#Cc1ccc(O[C@H]2CN(S(=O)(=O)c3cccnc3C#N)C[C@]2(O)CO)cc1F` [Example 140, 3-(((3S,4S)-4-(4-cyano-3-fluorophenoxy)-3-hydroxy-3-(hydroxymethyl)pyrrolidin-1-yl)sulfonyl)picolinonitrile] is lower in pIC50: 8.00 to 10.00 for the first, 7.00 to 8.00 for the second. The first is the more potent here.

Compared with `Cn1ncc(Br)c1S(=O)(=O)N1C[C@H](Oc2ccc(C#N)c(F)c2)[C@](O)(CO)C1` [Example 123, 4-(((3S,4R)-1-((4-bromo-1-methyl-1H-pyrazol-5-yl)sulfonyl)-4-hydroxy-4-(hydroxymethyl)pyrrolidin-3-yl)oxy)-2-fluorobenzonitrile], `Cc1nn(C)c(S(=O)(=O)N2C[C@H](Oc3ccc(C#N)c(F)c3)[C@](O)(CO)C2)c1Cl` [Example 124, 4-(((3S,4R)-1-((4-chloro-1,3-dimethyl-1H-pyrazol-5-yl)sulfonyl)-4-hydroxy-4-(hydroxymethyl)pyrrolidin-3-yl)oxy)-2-fluorobenzonitrile] is lower in pIC50: 7.00 to 8.00 for the first, 6.00 to 7.00 for the second. The first is the more potent here.

First: O=S(=O)(c1ccc(C(F)(F)F)cc1F)N1C[C@H](Oc2ccc3nonc3c2)[C@](O)(CO)C1 [Example 125, (3R,4S)-4-(benzo[c][1,2,5]oxadiazol-5-yloxy)-1-((2-fluoro-4-(trifluoromethyl)phenyl)sulfonyl)-3-(hydroxymethyl)pyrrolidin-3-ol]
Second: N#Cc1ccc(O[C@H]2CN(S(=O)(=O)c3ccc(C(F)(F)F)cc3C#N)C[C@]2(O)CO)cc1F [Example 135, 4-(((3S,4S)-1-((2-cyano-4-(trifluoromethyl)phenyl)sulfonyl)-4-hydroxy-4-(hydroxymethyl)pyrrolidin-3-yl)oxy)-2-fluorobenzonitrile]
The pIC50 of the first is lower: 7.00 to 8.00 for the first, 8.00 to 10.00 for the second.

Compared with `N#Cc1ccc(O[C@H]2CN(S(=O)(=O)c3ccc(OC(F)F)nc3)C[C@@]2(O)CO)cc1F` [Example 126, 4-(((3S,4R)-1-((6-(difluoromethoxy)pyridin-3-yl)sulfonyl)-4-hydroxy-4-(hydroxymethyl)pyrrolidin-3-yl)oxy)-2-fluorobenzonitrile], `N#Cc1ccc(O[C@H]2CN(S(=O)(=O)c3cccc(OC(F)F)n3)C[C@@]2(O)CO)cc1F` [Example 134, 4-(((3S,4R)-1-((6-(difluoromethoxy)pyridin-2-yl)sulfonyl)-4-hydroxy-4-(hydroxymethyl)pyrrolidin-3-yl)oxy)-2-fluorobenzonitrile] is higher in pIC50: 6.00 to 7.00 for the first, 7.00 to 8.00 for the second. The second is the more potent here.

First: N#Cc1ccc(O[C@H]2CN(S(=O)(=O)c3ccc(OC(F)(F)F)cn3)C[C@@]2(O)CO)cc1F [Example 127, 2-fluoro-4-(((3S,4R)-4-hydroxy-4-(hydroxymethyl)-1-((5-(trifluoromethoxy)pyridin-2-yl)sulfonyl)pyrrolidin-3-yl)oxy)benzonitrile]
Second: N#Cc1ccc(O[C@H]2CN(S(=O)(=O)c3cccc(OC(F)(F)F)n3)C[C@@]2(O)CO)cc1F [Example 132, 2-fluoro-4-(((3S,4R)-4-hydroxy-4-(hydroxymethyl)-1-((6-(trifluoromethoxy)pyridin-2-yl)sulfonyl)pyrrolidin-3-yl)oxy)benzonitrile]
The pIC50 of the first is lower: 6.00 to 7.00 for the first, 7.00 to 8.00 for the second. The second is the more potent here.

Compared with `N#Cc1ccc(O[C@H]2CN(S(=O)(=O)c3cnc(C(F)(F)F)nc3)C[C@@]2(O)CO)cc1F` [Example 128, 2-fluoro-4-(((3S,4R)-4-hydroxy-4-(hydroxymethyl)-1-((2-(trifluoromethyl)pyrimidin-5-yl)sulfonyl)pyrrolidin-3-yl)oxy)benzonitrile], `N#Cc1ccc(O[C@H]2CN(S(=O)(=O)c3ccc(OCC(F)(F)F)nn3)C[C@@]2(O)CO)cc1F` [Example 133, 2-fluoro-4-(((3S,4R)-4-hydroxy-4-(hydroxymethyl)-1-((6-(2,2,2-trifluoroethoxy)pyridazin-3-yl)sulfonyl)pyrrolidin-3-yl)oxy)benzonitrile] is higher in pIC50: 6.00 to 7.00 for the first, 7.00 to 8.00 for the second. The second is the more potent here.

`N#Cc1ccc(O[C@H]2CN(S(=O)(=O)c3ccc(Cl)c(OC(F)(F)F)c3)C[C@@]2(O)CO)cc1F` [Example 129, 4-(((3S,4R)-1-((4-chloro-3-(trifluoromethoxy)phenyl)sulfonyl)-4-hydroxy-4-(hydroxymethyl)pyrrolidin-3-yl)oxy)-2-fluorobenzonitrile] and `N#Cc1ccc(O[C@H]2CN(S(=O)(=O)c3ccc(Cl)cc3Cl)C[C@]2(O)CO)cc1F` [Example 142, 4-(((3S,4S)-1-((2,4-dichlorophenyl)sulfonyl)-4-hydroxy-4-(hydroxymethyl)pyrrolidin-3-yl)oxy)-2-fluorobenzonitrile] fall in the same range of pIC50: 7.00 to 8.00 for the first, 7.00 to 8.00 for the second.

First: N#Cc1ccc(O[C@H]2CN(S(=O)(=O)c3ccc(I)cn3)C[C@@]2(O)CO)cc1F [Example 130, 2-fluoro-4-(((3S,4R)-4-hydroxy-4-(hydroxymethyl)-1-((5-iodopyridin-2-yl)sulfonyl)pyrrolidin-3-yl)oxy)benzonitrile]
Second: N#Cc1ccc(O[C@H]2CN(S(=O)(=O)c3ccc(Cl)cn3)C[C@]2(O)CO)cc1F [Example 136, 4-(((3S,4S)-1-((5-chloropyridin-2-yl)sulfonyl)-4-hydroxy-4-(hydroxymethyl)pyrrolidin-3-yl)oxy)-2-fluorobenzonitrile]
The pIC50 of the first is higher: 7.00 to 8.00 for the first, 6.00 to 7.00 for the second.

`Cc1nc(C#N)ccc1S(=O)(=O)N1C[C@H](Oc2ccc(C#N)c(F)c2)[C@](O)(CO)C1` [Example 131, 5-(((3R,4S)-4-(4-cyano-3-fluorophenoxy)-3-hydroxy-3-(hydroxymethyl)pyrrolidin-1-yl)sulfonyl)-6-methylpicolinonitrile] and `COc1ccc(S(=O)(=O)N2C[C@H](Oc3ccc(C#N)c(F)c3)[C@@](O)(CO)C2)c(C#N)c1` [Example 145, 4-(((3S,4S)-1-((2-cyano-4-methoxyphenyl)sulfonyl)-4-hydroxy-4-(hydroxymethyl)pyrrolidin-3-yl)oxy)-2-fluorobenzonitrile] fall in the same range of pIC50: 7.00 to 8.00 for the first, 7.00 to 8.00 for the second.

Compared with `N#Cc1ccc(O[C@H]2CN(S(=O)(=O)c3ccccc3C#N)C[C@]2(O)CO)cc1F` [Example 137, 4-(((3S,4S)-1-((2-cyanophenyl)sulfonyl)-4-hydroxy-4-(hydroxymethyl)pyrrolidin-3-yl)oxy)-2-fluorobenzonitrile], `N#Cc1ccc(O[C@H]2CN(S(=O)(=O)c3ccc(F)cc3C#N)C[C@]2(O)CO)cc1F` [Example 138, 4-(((3S,4S)-1-((2-cyano-4-fluorophenyl)sulfonyl)-4-hydroxy-4-(hydroxymethyl)pyrrolidin-3-yl)oxy)-2-fluorobenzonitrile] is higher in pIC50: 7.00 to 8.00 for the first, 8.00 to 10.00 for the second.

`N#Cc1ccc(O[C@H]2CN(S(=O)(=O)c3ccc(Cl)cc3C#N)C[C@]2(O)CO)cc1F` [Example 139, 4-(((3S,4S)-1-((4-chloro-2-cyanophenyl)sulfonyl)-4-hydroxy-4-(hydroxymethyl)pyrrolidin-3-yl)oxy)-2-fluorobenzonitrile] and `N#Cc1ccc(O[C@H]2CN(S(=O)(=O)c3ccc(Br)cc3C#N)C[C@]2(O)CO)cc1F` [Example 143, 4-(((3S,4S)-1-((4-bromo-2-cyanophenyl)sulfonyl)-4-hydroxy-4-(hydroxymethyl)pyrrolidin-3-yl)oxy)-2-fluorobenzonitrile] fall in the same range of pIC50: 8.00 to 10.00 for the first, 8.00 to 10.00 for the second.

`N#Cc1ccc(S(=O)(=O)N2C[C@H](Oc3ccc(C#N)c(F)c3)[C@@](O)(CO)C2)c(Cl)c1` [Example 141, 4-(((3S,4S)-1-((2-chloro-4-cyanophenyl)sulfonyl)-4-hydroxy-4-(hydroxymethyl)pyrrolidin-3-yl)oxy)-2-fluorobenzonitrile] and `N#Cc1ccc(O[C@H]2CN(S(=O)(=O)c3ccc(F)cc3Br)C[C@]2(O)CO)cc1F` [Example 144, 4-(((3S,4S)-1-((2-bromo-4-fluorophenyl)sulfonyl)-4-hydroxy-4-(hydroxymethyl)pyrrolidin-3-yl)oxy)-2-fluorobenzonitrile] fall in the same range of pIC50: 7.00 to 8.00 for the first, 7.00 to 8.00 for the second.

`N#Cc1cc(C(F)(F)F)ccc1S(=O)(=O)N1C[C@H](Oc2ccc(Cl)cc2)[C@@](O)(CO)C1` [Example 146, 2-(((3S,4S)-4-(4-chlorophenoxy)-3-hydroxy-3-(hydroxymethyl)pyrrolidin-1-yl)sulfonyl)-5-(trifluoromethyl)benzonitrile] and `N#Cc1cc(F)ccc1S(=O)(=O)N1C[C@H](Oc2ccc(C(F)(F)F)cc2)[C@@](O)(CO)C1` [Example 149, 5-fluoro-2-(((3S,4S)-3-hydroxy-3-(hydroxymethyl)-4-(4-(trifluoromethyl)phenoxy)pyrrolidin-1-yl)sulfonyl)benzonitrile] fall in the same range of pIC50: 7.00 to 8.00 for the first, 7.00 to 8.00 for the second.

Compared with `N#Cc1cc(F)ccc1S(=O)(=O)N1C[C@H](Oc2ccc(Cl)cc2)[C@@](O)(CO)C1` [Example 147, 2-(((3S,4S)-4-(4-chlorophenoxy)-3-hydroxy-3-(hydroxymethyl)pyrrolidin-1-yl)sulfonyl)-5-fluorobenzonitrile], `N#Cc1cc(Cl)ccc1S(=O)(=O)N1C[C@H](Oc2ccc(Cl)cc2)[C@@](O)(CO)C1` [Example 151, 5-chloro-2-(((3S,4S)-4-(4-chlorophenoxy)-3-hydroxy-3-(hydroxymethyl)pyrrolidin-1-yl)sulfonyl)benzonitrile] is higher in pIC50: 7.00 to 8.00 for the first, 8.00 to 10.00 for the second. The second is the more potent here.

`N#Cc1cc(C(F)(F)F)ccc1S(=O)(=O)N1C[C@H](Oc2ccc(C(F)(F)F)cc2)[C@@](O)(CO)C1` [Example 148, 2-(((3S,4S)-3-hydroxy-3-(hydroxymethyl)-4-(4-(trifluoromethyl)phenoxy)pyrrolidin-1-yl)sulfonyl)-5-(trifluoromethyl)benzonitrile] and `N#Cc1ccc(S(=O)(=O)N2C[C@H](Oc3ccc(C(F)(F)F)cc3)[C@](O)(CO)C2)c(Cl)c1` [Example 150, 3-chloro-4-(((3R,4S)-3-hydroxy-3-(hydroxymethyl)-4-(4-(trifluoromethyl)phenoxy)pyrrolidin-1-yl)sulfonyl)benzonitrile] fall in the same range of pIC50: 7.00 to 8.00 for the first, 7.00 to 8.00 for the second.
